Test results taken from patent US7776862B2, “Pyridyl and phenyl substituted piperazine-piperidines with CXCR3 antagonist activity” (Schering Corporation, priority 2005, dated 2010).

Target: T1, human CXCR3 (N-delta 4) (Homo sapiens, UniProt P49682)
T1 construct: CD8 leader; Flag tag; expressed in transfected cells; membranes used
T1 sequence (P49682 5-368 limits assumed): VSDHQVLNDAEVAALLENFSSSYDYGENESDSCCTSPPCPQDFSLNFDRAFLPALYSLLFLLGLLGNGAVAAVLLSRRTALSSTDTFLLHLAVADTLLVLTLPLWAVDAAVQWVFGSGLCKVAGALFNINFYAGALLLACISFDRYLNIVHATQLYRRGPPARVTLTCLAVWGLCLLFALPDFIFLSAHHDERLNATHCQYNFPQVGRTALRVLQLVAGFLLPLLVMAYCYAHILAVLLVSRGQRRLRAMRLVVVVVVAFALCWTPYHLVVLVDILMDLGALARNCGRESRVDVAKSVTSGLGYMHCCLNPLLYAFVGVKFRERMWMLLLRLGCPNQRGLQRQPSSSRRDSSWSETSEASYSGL
Assay: Human CXCR3 (N-delta 4) scintillation proximity assay (SPA), [125I] IP-10 binding
Conditions: IC50 rating; Ba/F3-hCXCR3 (N-delta 4) membranes, 25 pM [125I] IP-10
Text: The inventive compounds can readily be evaluated to determine activity at the CXCR3 receptors by known methods, such as, for example, development of a human CXCR3 (N-delta 4) Binding Assay.
Cloning and expression of human CXCR3 (N-delta 4):
The DNA encoding human CXCR3 was cloned by PCR using human genomic DNA (Promega, Madison, Wis.) as a template. The PCR primers were designed based on the published sequence of human orphan receptor GPR9 (1) with incorporated restriction sites, a Kozak consensus sequence, CD8 leader and Flag tag. The PCR product was subcloned into the mammalian expression vector pME18Sneo, a derivative of the SR-alpha expression vector (designated as pME18Sneo-hCXCR3 (N-delta 4).
IL-3-dependent mouse pro-B cells Ba/F3 were transfected by electroporation in 0.4 ml Dulbecco's PBS containing 4×10^6 cells with 20 μg of pME18Sneo-hCXCR3 (N-delta 4) plasmid DNA. Cells were pulsed at 400 Volts, 100 OHMs, 960 μFd. The transfected cells were under selection with 1 mg/ml G418 (Life Technologies, Gaithersburg, Md.). […] IP-10 (NEN Life Science Products, Boston, Mass.).
Preparation of Ba/F3-hCXCR3 (N-delta 4) membranes:
Ba/F3 cells expressing human CXCR3 (N-delta 4) were pelleted and resuspended in the lysis buffer containing 10 mM HEPES, pH 7.5 and Complete® protease inhibitors (1 tablet per 100 ml) (Boehringer Mannheim, Indianapolis, Ind.) at a cell density of 20×10^6 cells per ml. […] Large cellular debris was removed by centrifugation at 1,000×g. Cell membrane in the supernatant was sedimented at 100,000×g. The membrane was resuspended in the lysis buffer supplemented with 10% sucrose and stored at −80° C. Total protein concentration of the membrane was determined by BCA method from Pierce (Rockford, Ill.).
Human CXCR3 (N-delta 4) scintillation proximity assay (SPA):
The beads were spun down, washed once, resuspended in the binding buffer and transferred to a 96-well Isoplate (Wallac, Gaithersburg, Md.). […] IP-10 with tested compounds in a series of titration were added to start the reaction.

Row | SMILES | IC50 [nM]
1 | O=C(NCCOc1ccccc1)c1cnc(N2CCN(C3CCN(Cc4ccc([N+](=O)[O-])cc4)CC3)CC2)c(Cl)c1 [compound 112] | 25 to 100
2 | O=C(NCc1ccc(F)cc1)c1cnc(N2CCN(C3CCN(Cc4ccc(Br)cc4)CC3)CC2)c(Cl)c1 [compound 113] | 25 to 100
3 | N#Cc1ccc(CN2CCC(N3CCN(c4ncc(C(=O)NCc5ccc(Br)cc5)cc4Cl)CC3)CC2)cc1 [compound 114] | 25 to 100
4 | O=C(NCc1ccc(Cl)c(Cl)c1)c1cnc(N2CCN(C3CCN(Cc4ccc(Cl)c(F)c4)CC3)CC2)c(Cl)c1 [compound 115] | 25 to 100
5 | COc1ccc(CN2CCC(N3CCN(c4ncc(C(=O)NCc5ccc(F)c(F)c5)cc4Cl)CC3)CC2)cc1 [compound 116] | 25 to 100
6 | COc1ccc(CN2CCC(N3CCN(c4ncc(C(=O)NCc5ccc(F)c(Cl)c5)cc4Cl)CC3)CC2)cc1 [compound 117] | 25 to 100
7 | O=C(NCc1cccc(Cl)c1)c1cnc(N2CCN(C3CCN(Cc4ccc(F)c(F)c4)CC3)CC2)c(Cl)c1 [compound 118] | 25 to 100
8 | O=C(NCc1ccc(Cl)cc1Cl)c1cnc(N2CCN(C3CCN(Cc4ccc(F)cc4)CC3)CC2)c(Cl)c1 [compound 119] | 25 to 100
9 | N#Cc1ccc(CN2CCC(N3CCN(c4ncc(C(=O)NCc5ccc(Cl)cc5F)cc4Cl)CC3)CC2)cc1 [compound 120] | 25 to 100
10 | O=C(NCc1ccc(F)c(F)c1)c1cnc(N2CCN(C3CCN(Cc4ccc(Cl)c(F)c4)CC3)CC2)c(Cl)c1 [compound 121] | 25 to 100
11 | CC1CN(C2CCN(Cc3ccc(Cl)cc3)CC2)CCN1c1ncc(C(=O)NCc2ccc(Cl)c(Cl)c2)cc1Cl (stereo not shown) [compound 122] | 25 to 100
12 | O=C(NCCOc1ccccc1)c1cnc(N2CCN(C3CCN(Cc4ccc(Cl)c(F)c4)CC3)CC2)c(Cl)c1 [compound 123] | 25 to 100
13 | COc1ccc(CN2CCC(N3CCN(c4ncc(C(=O)NCc5ccc(Cl)c(Cl)c5)cc4Cl)CC3)CC2)cc1 [compound 124] | 25 to 100
14 | O=C(NCc1ccc(Cl)cc1F)c1cnc(N2CCN(C3CCN(Cc4ccc(Cl)cc4)CC3)CC2)c(Cl)c1 [compound 125] | 25 to 100
15 | N#Cc1ccc(CN2CCC(N3CCN(c4ncc(C(=O)NCc5ccc(Cl)cc5)cc4Cl)CC3)CC2)cc1 [compound 126] | 25 to 100
16 | O=C(NCc1ccc(F)cc1F)c1cnc(N2CCN(C3CCN(Cc4ccc(Cl)c(F)c4)CC3)CC2)c(Cl)c1 [compound 127] | 25 to 100
17 | O=C(NCc1ccc(F)cc1F)c1cnc(N2CCN(C3CCN(Cc4ccc([N+](=O)[O-])cc4)CC3)CC2)c(Cl)c1 [compound 128] | 25 to 100
18 | N#Cc1ccc(CN2CCC(N3CCN(c4ncc(C(=O)NCc5ccc(F)c(F)c5)cc4Cl)CC3)CC2)cc1 [compound 129] | 25 to 100
19 | CC1CN(C2CCN(Cc3ccc(Cl)cc3)CC2)CCN1c1ncc(C(=O)NCCOc2ccccc2)cc1Cl (stereo not shown) [compound 130] | 25 to 100
20 | O=C(NCc1ccc(Br)cc1)c1cnc(N2CCN(C3CCN(Cc4ccc([N+](=O)[O-])cc4)CC3)CC2)c(Cl)c1 [compound 131] | 25 to 100
21 | O=C(NCc1ccc(F)cc1F)c1cnc(N2CCN(C3CCN(Cc4ccc(F)c(F)c4)CC3)CC2)c(Cl)c1 [compound 132] | 25 to 100
22 | O=C(NCc1ccc(Cl)cc1Cl)c1cnc(N2CCN(C3CCN(Cc4ccc(Cl)c(F)c4)CC3)CC2)c(Cl)c1 [compound 133] | 25 to 100
23 | O=C(NCc1ccc(Cl)cc1F)c1cnc(N2CCN(C3CCN(Cc4ccc(F)cc4)CC3)CC2)c(Cl)c1 [compound 134] | 25 to 100
24 | O=C(NCc1ccc(Cl)c(Cl)c1)c1cnc(N2CCN(C3CCN(Cc4ccc(F)cc4)CC3)CC2)c(Cl)c1 [compound 135] | 25 to 100
25 | O=C(NCc1ccc(Br)cc1)c1cnc(N2CCN(C3CCN(Cc4ccc(Cl)cc4)CC3)CC2)c(Cl)c1 [compound 136] | 25 to 100

Further lines, results first:

Row | IC50 [nM] | SMILES
26 | 25 to 100 | COc1ccc(CN2CCC(N3CCN(c4ncc(C(=O)NCc5ccc(Br)cc5)cc4Cl)CC3)CC2)cc1 [compound 137]
27 | 25 to 100 | CNC(=O)c1cnc(N2CCN(C3CCN(Cc4ccc(Cl)cc4)CC3)CC2C)c(Cl)c1 (stereo not shown) [compound 138]
28 | 25 to 100 | O=C(NCc1ccc(F)cc1)c1cnc(N2CCN(C3CCN(Cc4ccc(Cl)c(F)c4)CC3)CC2)c(Cl)c1 [compound 139]
29 | 25 to 100 | O=C(NCc1ccc(Cl)cc1F)c1cnc(N2CCN(C3CCN(Cc4ccc(F)c(F)c4)CC3)CC2)c(Cl)c1 [compound 140]
30 | 25 to 100 | O=C(NCc1ccc(Cl)cc1Cl)c1cnc(N2CCN(C3CCN(Cc4ccc(F)c(F)c4)CC3)CC2)c(Cl)c1 [compound 141]
31 | 25 to 100 | O=C(NCc1ccc(Cl)cc1Cl)c1cnc(N2CCN(C3CCN(Cc4ccc([N+](=O)[O-])cc4)CC3)CC2)c(Cl)c1 [compound 142]
32 | 25 to 100 | CC1CC(N2CCN(c3ncc(C(=O)NCc4ccc(Cl)c(Cl)c4)cc3Cl)CC2)CCN1Cc1ccc(C#N)cc1 (stereo not shown) [compound 143]
33 | 25 to 100 | O=C(NCc1ccc(F)c(Cl)c1)c1cnc(N2CCN(C3CCN(Cc4ccc(F)cc4)CC3)CC2)c(Cl)c1 [compound 144]
34 | 25 to 100 | N#Cc1ccc(CN2CCC(N3CCN(c4ncc(C(=O)NCc5ccc(Cl)c(Cl)c5)cc4Br)CC3)CC2)cc1 [compound 145]
35 | 25 to 100 | CC[C@H]1CN(c2ncc(C(N)=O)cc2Cl)CCN1C1CCN(C(=O)c2ccc(Cl)cc2N2CCOC2=O)CC1 [compound 146]
36 | 25 to 100 | O=C(NCc1ccc(Cl)c(Cl)c1)c1cnc(N2CCN(C3CCN(Cc4ccc(F)c(F)c4)CC3)CC2)c(Cl)c1 [compound 147]
37 | 25 to 100 | O=C(NCc1cccc(Cl)c1)c1cnc(N2CCN(C3CCN(Cc4ccc([N+](=O)[O-])cc4)CC3)CC2)c(Cl)c1 [compound 148]
38 | 25 to 100 | O=C(NCc1ccc(Cl)cc1Cl)c1cnc(N2CCN(C3CCN(Cc4ccc(Cl)cc4)CC3)CC2)c(Cl)c1 [compound 149]
39 | 25 to 100 | O=C(NCc1ccc(F)c(Cl)c1)c1cnc(N2CCN(C3CCN(Cc4ccc(Cl)cc4)CC3)CC2)c(Cl)c1 [compound 150]
40 | 25 to 100 | O=C(NCc1ccc(Cl)cc1)c1cnc(N2CCN(C3CCN(Cc4ccc(F)cc4)CC3)CC2)c(Cl)c1 [compound 151]
41 | 25 to 100 | C[C@@H]1CN(c2ncc(C(=O)NCc3ccc(F)c(F)c3)cc2Cl)CCN1C1CCN(Cc2ccc(Cl)cc2)CC1 [compound 152]
42 | 25 to 100 | O=C(NCc1ccc(Cl)cc1)c1cnc(N2CCN(C3CCN(Cc4ccc([N+](=O)[O-])cc4)CC3)CC2)c(Cl)c1 [compound 153]
43 | 25 to 100 | O=C(NCc1ccc(F)c(Cl)c1)c1cnc(N2CCN(C3CCN(Cc4ccc(F)c(F)c4)CC3)CC2)c(Cl)c1 [compound 154]
44 | 25 to 100 | O=C(NCc1ccc(Cl)cc1F)c1cnc(N2CCN(C3CCN(Cc4ccc([N+](=O)[O-])cc4)CC3)CC2)c(Cl)c1 [compound 155]
45 | 25 to 100 | O=C(NCc1ccc(F)c(Cl)c1)c1cnc(N2CCN(C3CCN(Cc4ccc(Cl)c(F)c4)CC3)CC2)c(Cl)c1 [compound 156]
46 | 25 to 100 | O=C(NCc1ccc(Cl)cc1)c1cnc(N2CCN(C3CCN(Cc4ccc(F)c(F)c4)CC3)CC2)c(Cl)c1 [compound 157]
47 | 25 to 100 | O=C(NCc1ccc(F)c(Cl)c1)c1cnc(N2CCN(C3CCN(Cc4ccc([N+](=O)[O-])cc4)CC3)CC2)c(Cl)c1 [compound 158]
48 | 25 to 100 | CNC(=O)c1cnc(N2CCN(C3CCN(Cc4ccc(Cl)cc4)C(C)C3)[C@@H](C)C2)c(Cl)c1 (stereo partly shown) [compound 159]
49 | 25 to 100 | CC[C@H]1CN(c2ncc(C(=O)NC(C)C)cc2Cl)CCN1C1CCN(C(=O)c2ccc(Cl)cc2)CC1 [compound 160]
